Reference: US12428455B2, “Dominant negative CEBPB and CEBPD proteins and methods of use for decreasing viability of neoplastic cells” (The Trustees of Columbia University in the City of New York, priority 2018, dated 2025)
No end group written: not given here.

Legend:
[1] = system: LN229 glioblastoma cells; experiment: Cell number after peptide treatment, LN229; format: cell-based, human; conditions: for growth and survival of LN229 cells: 6 days, 0 μM to 50 μM, stock without BSA
Procedure: In some implementations, the mixture of arg/glu may be added at a molarity of, or of about 5 mM, 10 mM, 15 mM, 20 mM, 25 mM, or 30 mM.
Replicate cultures were exposed to the peptides the for 6 days at the indicated concentrations. Stock solutions of the peptides were prepared in buffer without added bovine serum albumin (BSA).

[2] = system: T98G and HCT116 cells; experiment: Combination with gamma radiation, overall conclusion; format: cell-based; conditions: 2 Gy or 5 Gy; immediate or delayed peptide treatment
Procedure: Replicate cultures of T98G and HCT116 cells were exposed to 2 Gy or 5 Gy of gamma radiation. Immediately, the cultures were treated with 3 μM, 10 μM, or 20 μM CP-dn-CEBPB and CP-dn-CEBPD peptides, maintained for 6 days, and then assessed for cell number. […]
Replicate cultures of T98G and HCT116 cells were exposed to 2 Gy or 5 Gy of gamma radiation. One day later, the cultures were treated with 0.05 μM, 0.5 μM, or 5 μM CP-dn-CEBPB and CP-dn-CEBPD peptides, maintained for 6 days, and then assessed for cell number. The bar graphs of FIGS. 24A (T98G, CP-dn-CEBPB), 24C (T98G, CP-dn-CEBPBD, 24E (HCT116, CP-dn-CEBPD), and 24G (HCT116, CP-dn-CEBPD) show relative cell numbers for each condition as compared to untreated controls. The line graphs of FIGS. 24B (T98G, CP-dn-CEBPB), 24D (T98G, CP-dn-CEBPBD, 24F (HCT116, CP-dn-CEBPB), and 24H (HCT116, CP-dn-CEBPD) show the response as normalized in each case so that 100 represents the relative number of surviving cells that received the indicated level of radiation treatment, but no peptide treatment. Calculated Combination Indexes (CI) are T98G, CI=0.61±0.05 for CP-dn-CEBPB, 0.68±0.07 for CP-dn-CEBPD; HCT116, 0.89±0.04 for CP-dn-CEBPB, 0.86±0.05 for CP-dn-CEBPD. […]

[3] = system: MCF7 cells; experiment: Combination with paclitaxel, cell number, MCF7; format: cell-based; conditions: 1 nM or 5 nM paclitaxel and 3, 10 or 20 μM peptide, 6 days
Procedure: Replicate cultures of T98G, MDA-MB 231, and MCF7 cells were treated with 1 nM or 5 nM paclitaxel and 3 μM, 10 μM, or 20 μM CP-dn-CEBPB and CP-dn-CEBPD peptides, maintained for 6 days, and then assessed for cell number. The bar graphs of FIGS. 26A (T98G, CP-dn-CEBPB), 26C (T98G, CP-dn-CEBPBD, 26E (MDA-MB-231, CP-dn-CEBPBD), 26G (MDA-MB-231, CP-dn-CEBPD), 26I (MCF7, CP-dn-CEBPBB), and 26K (MCF7, CP-dn-CEBPBD) show relative cell numbers for each condition as compared to untreated controls. The line graphs of FIGS. 26B (T98G, CP-dn-CEBPB), 26D (T98G, CP-dn-CEBPBD), 26F (MDA-MB-231, CP-dn-CEBPB), 26H (MDA-MB-231, CP-dn-CEBPD), 26J (MCF7, CP-dn-CEBPB), and 26L (MCF7 CP-dn-CEBPBD) show the response as normalized in each case so that 100 represents the relative number of surviving cells that received the indicated level of paclitaxel, but no peptide treatment. Calculated combination indices (CI) were as follows: MCF7: CI=0.41±0.04 for CP-dn-CEBPB; 0.44±0.04 for CP-dn-CEBPD; MDA-MB-231: 0.74±0.03 for CP-dn-CEBPB; 0.74±0.05 for CP-dn-CEBPD; T98G: CI=0.84±0.06 for CP-dn-CEBPB and 0.75±0.07 for CP-dn-CEBPD.

[4] = system: MDA-MB-231, MCF7, HCT116 and T98G cancer cell lines; experiment: PI-Annexin staining and flow cytometry, cancer cell lines; format: cell-based; conditions: 20 μM, 3 days
Procedure: MDA-MB-231, MCF7, HCT116 and T98G cancer cell lines and HIEC-6 non-cancer cell lines were treated for 3 days with 20 μM CP-dn-CEBPB and CP-dn-CEBPD peptides from stock solutions prepared without additives, followed by PI-Annexin staining and flow cytometry. Numbers in upper and lower quadrants indicate % of cells in early (lower) or late (upper) apoptotic phase.

[5] = system: paclitaxel-resistant T98G cells; experiment: Cell number, paclitaxel-resistant T98G cells; format: cell-based; conditions: 6 days; 0 μM to 50 μM peptide or 0 nM to 50 nM paclitaxel
Procedure: Replicate cultures of T98G wild type cells and paclitaxel-resistant T98G cells were treated with 0 nM to 50 nM paclitaxel or 0 μM to 50 μM CP-dn-CEBPB or CP-dn-CEBPD peptides, maintained for 6 days, and then assessed for cell number. Paclitaxel resistant T98G cells were inhibited by both CP-dn-CEBPB (FIG. 28A) and CP-dn-CEBPD (FIG. 28B), but, as expected were not inhibited by paclitaxel (FIG. 28C). This establishes that CP-dn-CEBPB and CP-dn-CEBPD may be effective against chemotherapy-resistant cells.

Sequence | growth and survival of LN229 cells [1] | effect of adding arg/glu mixture at 2 mM ([1]; cultured LN229 cells) | shift of IC50 by 20 mM arginine and glutamate ([1]; cultured LN229 cells) | kind of combined effect with gamma radiation [2] | combination index (CI) with paclitaxel [3] | apoptotic death (early or late apoptotic phase) [4] | inhibition of paclitaxel-resistant T98G cells (cell number) [5]
RQIKIWFQNRRMKWKKLVELSAENEKLHQRVEQLTRDLAGLRQFFK [CP-DN-CEBPD] | decrease in growth and survival | only minimal effect | 10 fold | synergistic effect | 0.44±0.04 | caused apoptotic death in multiple cancer cell lines | inhibited
RQIKIWFQNRRMKWKKLETQHKVLELTAENERLQKKVEQLSRELSTLRNLFKQL [CP-DN-CEBPB] | decrease in growth and survival | only minimal effect |  | synergistic effect | 0.41±0.04 | caused apoptotic death in multiple cancer cell lines | inhibited
